≈ marks a conversion by molar mass, not a printed value.
Legend:
[1] = test system: A549; assay: Cytotoxicity against human A549 cells assessed as reduction in cell viability after 24 hrs by MTT assay; assay type: functional, cell-based; settings: A549, 24 h
[2] = test system: C6; assay: Cytotoxicity against rat C6 cells assessed as reduction in cell viability after 24 hrs by MTT assay; assay type: functional, cell-based; settings: C6, 24 h
[3] = test system: Leishmania infantum; assay: Anti-parasitic activity against promastigote stage of Leishmania infantum MHOM/BR/BH 46 after 72 hrs by Neubauer chamber method; assay type: functional, organism-based; settings: MHOM/BR/BH 46, 72 h
[4] = test system: Leishmania infantum; assay: Anti-parasitic activity against amastigote stage of Leishmania infantum MHOM/BR/BH 46 infected in macrophages after 24 hrs by Giemsa staining based method; assay type: functional, organism-based; settings: MHOM/BR/BH 46, 24 h
[5] = Selectivity index, ratio of CC50 for mouse J774 cells to IC50 for promastigote stage of Leishmania infantum MHOM/BR/BH 46; assay type: toxicity; settings: read-out: Ratio CC50/IC50
[6] = Selectivity index, ratio of cytotoxic activity for macrophages (unknown origin) to IC50 for amastigote stage of Leishmania infantum MHOM/BR/BH 46; assay type: toxicity; settings: read-out: Ratio CC50/IC50
[7] = test system: Trypanosoma cruzi; assay: Anti-parasitic activity against trypomastigote stage of Trypanosoma cruzi Y infected in monkey LLC-MK2 cells after 24 hrs; assay type: functional, organism-based; settings: LLC-MK2, 24 h
[8] = Selectivity index, ratio of cytotoxic activity for monkey LLC-MK2 cells to IC50 for trypomastigote stage of Trypanosoma cruzi Y; assay type: toxicity
[9] = test system: Trypanosoma brucei brucei; assay: Anti-parasitic activity against Trypanosoma brucei brucei AnTat1.1E; assay type: functional, organism-based
[10] = Selectivity index, ratio of IC50 for HEK293T cells to IC50 for Trypanosoma brucei brucei AnTat1.1E; assay type: toxicity; settings: human
[11] = test system: Leishmania panamensis; assay: Anti-parasitic activity against amastigote stage of EGFP-fused Leishmania panamensis MHOM/CO/87/UA140 infected in human U-937 cells after 72 hrs by flow cytometric analysis; assay type: functional, organism-based; settings: MHOM/CO/87/UA140, U-937, 72 h
[12] = Selectivity index, ratio of EC50 for human U-937 cells to IC50 for amastigote stage of EGFP-fused Leishmania panamensis MHOM/CO/87/UA140; assay type: toxicity; settings: read-out: Selectivity Index
[13] = test system: Leishmania amazonensis; assay: Anti-parasitic activity against promastigote stage of Leishmania amazonensis WHOM/00 LTB 0016 after 96 hrs; assay type: functional, organism-based; settings: WHOM/00 LTB 0016, 96 h
[14] = Selectivity index, ratio of CC50 for mouse macrophages to IC50 for promastigote stage of Leishmania amazonensis WHOM/00 LTB 0016; assay type: toxicity; settings: read-out: Ratio CC50/IC50
[15] = test system: Leishmania amazonensis; assay: Anti-parasitic activity against amastigote stage of Leishmania amazonensis WHOM/00 LTB 0016 infected in mouse macrophages after 24 hrs; assay type: functional, organism-based; settings: WHOM/00 LTB 0016, 24 h
[16] = Selectivity index, ratio of CC50 for mouse macrophages to IC50 for amastigote stage of Leishmania amazonensis WHOM/00 LTB 0016; assay type: toxicity; settings: read-out: Ratio CC50/IC50
[17] = test system: Trypanosoma cruzi; assay: Anti-parasitic activity against amastigote stage of Trypanosoma cruzi Y infected in monkey LLC-MK2 cells after 96 hrs; assay type: functional, organism-based; settings: LLC-MK2, 96 h
[18] = test system: MKN-45; assay: Cytotoxicity against human MKN45 cells assessed as reduction in cell viability after 72 hrs by MTT assay; assay type: functional, cell-based; settings: MKN-45, 72 h
[19] = test system: HT-29; assay: Cytotoxicity against human HT-29 cells assessed as reduction in cell viability after 72 hrs by MTT assay; assay type: functional, cell-based; settings: HT-29, 72 h
[20] = test system: NCI-H460; assay: Cytotoxicity against human H460 cells assessed as reduction in cell viability after 72 hrs by MTT assay; assay type: functional, cell-based; settings: NCI-H460, 72 h
[21] = test system: WI-38; assay: Cytotoxicity against human WI38 cells assessed as reduction in cell viability after 72 hrs by MTT assay; assay type: cell-based; settings: WI-38, 72 h
[22] = molecular target: Hepatocyte growth factor receptor (Homo sapiens) (UniProt P08581); assay: Inhibition of recombinant N-terminal His6-tagged human c-MET (974 to end residues) expressed in baculovirus infected Sf21 cells at 10 uM using peptide as substrate preincubated for 1 hr followed by substrate addition measured after 20 mins by HTRF assay relative to control
[23] = molecular target: Vascular endothelial growth factor receptor 2 (Homo sapiens) (UniProt P35968); assay: Inhibition of recombinant GST-tagged human KDR (789 to end residues) expressed in baculovirus infected Sf9 cells at 10 uM using peptide as substrate preincubated for 1 hr followed by substrate addition measured after 20 mins by HTRF assay relative to control
[24] = molecular target: Platelet-derived growth factor receptor alpha (Homo sapiens) (UniProt P16234); assay: Inhibition of recombinant GST-tagged human PDGFRalpha (550 to 1089 residues) cytoplasmic domain expressed in baculovirus expression system at 10 uM using peptide as substrate preincubated for 1 hr followed by substrate addition measured after 20 mins by HTRF assay relative to control
[25] = molecular target: RAF proto-oncogene serine/threonine-protein kinase (Homo sapiens) (UniProt P04049); assay: Inhibition of c-Raf (unknown origin) at 10 uM using peptide as substrate preincubated for 1 hr followed by substrate addition measured after 20 mins by HTRF assay relative to control
[26] = molecular target: Cruzipain (Trypanosoma cruzi) (UniProt P25779); assay: Inhibition of recombinant Trypanosoma cruzi CL epimastigotes form cruzain at 100 uM using Z-FR-AMC as substrate preincubated for 10 mins followed by substrate addition measured after 5 mins by fluorimetric analysis relative to control
[27] = test system: Trypanosoma brucei brucei; assay: Anti-parasitic activity against trypomastigote stage of Trypanosoma brucei brucei; assay type: functional, organism-based
[28] = Selectivity index, ratio of IC50 for human WI38 cells to IC50 for trypomastigote stage of Trypanosoma brucei brucei; assay type: toxicity; settings: read-out: Ratio IC50
[29] = test system: Trypanosoma brucei rhodesiense; assay: Anti-parasitic activity against Trypanosoma brucei rhodesiense STIB 851; assay type: functional, organism-based
[30] = Selectivity index, ratio of IC50 for HEK293T cells to IC50 for Trypanosoma brucei rhodesiense STIB 851; assay type: toxicity; settings: human
[31] = test system: Trypanosoma brucei gambiense; assay: Anti-parasitic activity against Trypanosoma brucei gambiense MBA; assay type: functional, organism-based
[32] = Selectivity index, ratio of IC50 for HEK293T cells to IC50 for Trypanosoma brucei gambiense MBA; assay type: toxicity; settings: human

Platelet-derived growth factor receptor alpha (Homo sapiens), sequence (P16234 whole entry, the tested form may be a part): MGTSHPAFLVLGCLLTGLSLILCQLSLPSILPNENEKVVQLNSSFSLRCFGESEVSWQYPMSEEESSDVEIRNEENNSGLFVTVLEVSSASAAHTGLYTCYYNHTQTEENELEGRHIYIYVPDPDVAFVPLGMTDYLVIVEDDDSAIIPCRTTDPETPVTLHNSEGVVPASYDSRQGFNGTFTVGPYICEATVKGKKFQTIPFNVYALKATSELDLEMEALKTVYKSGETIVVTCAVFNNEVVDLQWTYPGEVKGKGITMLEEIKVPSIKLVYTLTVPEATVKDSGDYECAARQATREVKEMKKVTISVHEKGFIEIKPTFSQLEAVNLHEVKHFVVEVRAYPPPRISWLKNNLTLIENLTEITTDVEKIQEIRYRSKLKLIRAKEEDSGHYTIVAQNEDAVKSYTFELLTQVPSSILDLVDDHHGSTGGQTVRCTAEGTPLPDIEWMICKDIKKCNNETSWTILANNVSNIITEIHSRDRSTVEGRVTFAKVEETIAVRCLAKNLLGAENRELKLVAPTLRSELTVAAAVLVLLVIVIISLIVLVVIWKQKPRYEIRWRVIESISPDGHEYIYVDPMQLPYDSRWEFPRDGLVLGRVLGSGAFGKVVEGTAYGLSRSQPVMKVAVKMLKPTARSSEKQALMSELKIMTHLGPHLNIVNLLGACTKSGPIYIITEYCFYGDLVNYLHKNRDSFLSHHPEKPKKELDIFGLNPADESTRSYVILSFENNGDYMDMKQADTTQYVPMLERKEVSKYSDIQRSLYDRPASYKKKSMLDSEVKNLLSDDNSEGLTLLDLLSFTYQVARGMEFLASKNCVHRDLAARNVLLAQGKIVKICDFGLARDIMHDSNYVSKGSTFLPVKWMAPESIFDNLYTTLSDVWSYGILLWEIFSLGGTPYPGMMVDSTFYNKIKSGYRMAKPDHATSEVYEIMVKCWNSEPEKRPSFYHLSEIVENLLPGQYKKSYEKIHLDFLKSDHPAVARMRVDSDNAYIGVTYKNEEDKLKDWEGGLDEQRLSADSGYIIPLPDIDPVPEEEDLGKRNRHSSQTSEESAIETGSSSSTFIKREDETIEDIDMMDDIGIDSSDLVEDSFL
Vascular endothelial growth factor receptor 2 (Homo sapiens), sequence (P35968 whole entry, the tested form may be a part): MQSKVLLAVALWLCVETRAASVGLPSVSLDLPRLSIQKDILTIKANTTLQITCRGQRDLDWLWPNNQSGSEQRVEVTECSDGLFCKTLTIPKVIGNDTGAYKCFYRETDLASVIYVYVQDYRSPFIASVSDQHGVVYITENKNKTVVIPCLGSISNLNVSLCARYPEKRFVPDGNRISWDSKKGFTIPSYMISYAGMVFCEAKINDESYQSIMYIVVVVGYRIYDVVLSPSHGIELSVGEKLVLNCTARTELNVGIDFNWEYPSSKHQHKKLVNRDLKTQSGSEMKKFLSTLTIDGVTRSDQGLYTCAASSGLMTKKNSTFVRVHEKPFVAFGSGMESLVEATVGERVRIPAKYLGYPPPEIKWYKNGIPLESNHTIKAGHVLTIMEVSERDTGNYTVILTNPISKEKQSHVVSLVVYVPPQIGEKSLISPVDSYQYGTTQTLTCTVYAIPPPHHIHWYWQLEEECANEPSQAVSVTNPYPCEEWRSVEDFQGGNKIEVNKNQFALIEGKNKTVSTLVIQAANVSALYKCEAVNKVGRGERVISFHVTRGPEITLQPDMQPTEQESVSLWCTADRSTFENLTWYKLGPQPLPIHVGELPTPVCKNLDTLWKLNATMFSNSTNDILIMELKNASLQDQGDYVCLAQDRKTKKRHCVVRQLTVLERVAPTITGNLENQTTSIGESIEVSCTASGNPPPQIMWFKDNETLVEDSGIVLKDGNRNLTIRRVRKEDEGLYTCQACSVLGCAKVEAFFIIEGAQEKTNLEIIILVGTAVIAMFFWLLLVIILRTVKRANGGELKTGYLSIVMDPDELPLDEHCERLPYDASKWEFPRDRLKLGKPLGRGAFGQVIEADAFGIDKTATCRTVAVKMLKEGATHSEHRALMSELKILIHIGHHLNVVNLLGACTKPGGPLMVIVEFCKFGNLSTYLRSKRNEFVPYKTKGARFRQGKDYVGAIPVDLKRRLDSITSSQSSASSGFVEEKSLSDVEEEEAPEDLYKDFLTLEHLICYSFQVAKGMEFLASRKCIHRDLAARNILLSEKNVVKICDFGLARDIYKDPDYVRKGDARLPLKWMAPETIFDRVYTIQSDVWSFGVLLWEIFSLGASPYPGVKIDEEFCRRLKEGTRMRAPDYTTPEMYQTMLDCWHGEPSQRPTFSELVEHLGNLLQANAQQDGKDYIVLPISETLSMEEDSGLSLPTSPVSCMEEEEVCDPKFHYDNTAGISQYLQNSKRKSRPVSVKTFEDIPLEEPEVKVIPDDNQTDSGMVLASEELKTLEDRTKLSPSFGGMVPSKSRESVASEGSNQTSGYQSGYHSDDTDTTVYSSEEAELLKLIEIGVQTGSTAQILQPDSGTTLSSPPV
Hepatocyte growth factor receptor (Homo sapiens), sequence (P08581 whole entry): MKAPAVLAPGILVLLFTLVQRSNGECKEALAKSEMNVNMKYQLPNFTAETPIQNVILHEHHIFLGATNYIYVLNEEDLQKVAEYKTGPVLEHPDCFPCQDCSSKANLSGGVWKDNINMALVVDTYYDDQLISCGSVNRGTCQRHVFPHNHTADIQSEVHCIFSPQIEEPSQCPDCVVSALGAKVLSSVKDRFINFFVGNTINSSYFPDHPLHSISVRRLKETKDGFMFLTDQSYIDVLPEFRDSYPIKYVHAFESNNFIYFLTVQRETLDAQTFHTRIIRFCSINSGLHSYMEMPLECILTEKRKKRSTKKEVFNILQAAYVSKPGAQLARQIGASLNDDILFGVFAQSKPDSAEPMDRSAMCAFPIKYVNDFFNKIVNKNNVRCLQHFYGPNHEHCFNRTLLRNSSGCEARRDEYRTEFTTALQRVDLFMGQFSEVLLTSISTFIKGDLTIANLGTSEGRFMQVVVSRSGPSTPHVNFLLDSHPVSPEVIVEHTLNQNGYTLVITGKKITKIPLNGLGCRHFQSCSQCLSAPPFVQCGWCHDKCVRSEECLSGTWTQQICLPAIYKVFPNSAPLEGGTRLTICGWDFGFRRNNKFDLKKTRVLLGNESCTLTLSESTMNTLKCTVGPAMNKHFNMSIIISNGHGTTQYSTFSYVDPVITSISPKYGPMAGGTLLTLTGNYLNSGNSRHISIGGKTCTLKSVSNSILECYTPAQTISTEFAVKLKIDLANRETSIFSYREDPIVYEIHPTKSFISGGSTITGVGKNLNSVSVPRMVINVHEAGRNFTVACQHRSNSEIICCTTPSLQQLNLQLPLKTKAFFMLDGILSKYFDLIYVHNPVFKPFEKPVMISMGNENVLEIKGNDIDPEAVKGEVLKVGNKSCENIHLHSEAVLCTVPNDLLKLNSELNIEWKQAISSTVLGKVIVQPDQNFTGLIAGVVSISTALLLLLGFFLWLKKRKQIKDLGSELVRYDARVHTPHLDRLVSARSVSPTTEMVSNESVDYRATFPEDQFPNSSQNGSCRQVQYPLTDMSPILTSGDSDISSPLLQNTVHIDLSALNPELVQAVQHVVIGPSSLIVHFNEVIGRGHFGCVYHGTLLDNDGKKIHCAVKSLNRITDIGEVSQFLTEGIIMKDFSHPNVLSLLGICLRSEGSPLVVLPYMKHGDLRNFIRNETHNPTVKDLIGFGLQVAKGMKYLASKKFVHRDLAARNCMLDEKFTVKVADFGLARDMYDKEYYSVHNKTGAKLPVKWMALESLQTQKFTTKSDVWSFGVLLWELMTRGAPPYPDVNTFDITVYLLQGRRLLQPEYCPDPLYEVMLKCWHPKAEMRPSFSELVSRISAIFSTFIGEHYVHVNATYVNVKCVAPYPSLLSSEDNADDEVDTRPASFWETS
Cruzipain (Trypanosoma cruzi), sequence (P25779 123-467 limits assumed): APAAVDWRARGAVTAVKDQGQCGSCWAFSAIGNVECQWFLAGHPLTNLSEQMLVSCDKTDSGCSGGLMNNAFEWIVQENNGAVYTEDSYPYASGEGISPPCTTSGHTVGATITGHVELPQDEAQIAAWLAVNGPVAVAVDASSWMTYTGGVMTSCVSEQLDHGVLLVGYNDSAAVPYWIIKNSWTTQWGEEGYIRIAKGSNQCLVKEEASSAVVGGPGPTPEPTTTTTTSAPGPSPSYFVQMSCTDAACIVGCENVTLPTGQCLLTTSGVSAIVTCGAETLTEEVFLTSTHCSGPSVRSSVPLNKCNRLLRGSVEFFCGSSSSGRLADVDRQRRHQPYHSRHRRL
RAF proto-oncogene serine/threonine-protein kinase (Homo sapiens), sequence (P04049 whole entry): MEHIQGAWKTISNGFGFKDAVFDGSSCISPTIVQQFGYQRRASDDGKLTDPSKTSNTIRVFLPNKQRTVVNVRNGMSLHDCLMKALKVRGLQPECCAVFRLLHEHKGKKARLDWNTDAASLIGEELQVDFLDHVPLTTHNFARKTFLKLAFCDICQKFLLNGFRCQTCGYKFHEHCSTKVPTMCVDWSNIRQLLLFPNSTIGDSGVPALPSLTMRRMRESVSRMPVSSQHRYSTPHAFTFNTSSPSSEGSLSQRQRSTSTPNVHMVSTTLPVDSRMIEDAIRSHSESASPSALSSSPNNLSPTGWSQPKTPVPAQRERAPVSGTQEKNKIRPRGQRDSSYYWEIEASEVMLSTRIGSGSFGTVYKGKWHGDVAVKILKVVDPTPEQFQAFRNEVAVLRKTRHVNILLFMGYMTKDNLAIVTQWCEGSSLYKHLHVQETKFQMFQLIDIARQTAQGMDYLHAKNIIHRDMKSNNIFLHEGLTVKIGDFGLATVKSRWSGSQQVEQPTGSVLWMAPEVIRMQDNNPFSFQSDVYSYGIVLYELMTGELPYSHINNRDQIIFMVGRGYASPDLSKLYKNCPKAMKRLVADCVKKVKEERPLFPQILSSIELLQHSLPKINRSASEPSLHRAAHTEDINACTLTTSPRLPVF

With Cc1c(CO)c(CO)c2n1[C@@H](c1ccccc1)SC2 the IC50 [1] was 12 µg/mL (≈ 43.6 µM) and the IC50 [2] was 3.83 µg/mL (≈ 13.9 µM).
O=C1c2ccccc2C(=O)N1Nc1nc(-c2ccc(Cl)cc2Cl)cs1 gave an IC50 [3] of 13.9 µM, an IC50 [4] of 22.3 µM and a selectivity ratio [5] of 12.7. For the same compound, the selectivity ratio [6] was 12.
In the case of CCC1S/C(=N/N=C(/COc2ccccc2)c2ccc(-c3ccccc3)cc2)NC1=O (stereo unspecified), the IC50 [7] is reported as 10.8 µM and the selectivity ratio [8] is reported as over 21.6.
CCOC(=O)c1ccc(-n2sc3ccccc3c2=O)cc1 showed an IC50 [9] of 937 nM and a selectivity ratio [10] of over 267.
For O=C1c2ccccc2C(=O)N1Nc1nc(-c2ccc3ccccc3c2)cs1, the IC50 [3] was 9.8 µM, the IC50 [4] was 5.2 µM and the selectivity ratio [5] was 17.7. It also gave a selectivity ratio [6] of 24.
For NC(=O)N/N=C1\CC(c2ccccc2)Sc2ccccc21 (stereo unspecified), the EC50 [11] was 5.4 µM and the selectivity ratio [12] was 18.6.
Work on NC(=S)N/N=C(/COc1ccccc1)c1ccccc1 yielded an IC50 [13] of 6 µM, a selectivity ratio [14] of 71.1 and an IC50 [15] of 33 µM. It also gave a selectivity ratio [16] of 4.94.
With N/C(S)=N/N=C/c1ccc([N+](=O)[O-])cc1 the EC50 [7] was 1430 nM and the IC50 [17] was 3.23 µM.
For CCC1S/C(=N/N=C(/COc2ccccc2)c2ccc(Br)cc2)NC1=O (stereo unspecified), the IC50 [7] was 4 µM and the selectivity ratio [8] was over 57.9.
O=C(N/N=C/c1c(Cl)cccc1Cl)Nc1ccc(Oc2ccnc(-n3cnnn3)c2)c(F)c1 gave an IC50 [18] of 970 nM, an IC50 [19] of 80 nM and an IC50 [20] of 360 nM. For the same compound, the IC50 [21] was 3.96 µM, the inhibition [22] was 14% and the inhibition [23] was 14%. It also gave an inhibition [24] of 14% and an inhibition [25] of 70.7%.
In the case of CC(C)c1ccc(/C=N/NC(N)=S)cc1, the inhibition [26] is reported as 70%.
CC1=C/C(=N/NC(=S)Nc2ccccc2)C(C(C)C)CC1 (stereo unspecified) showed an IC50 [27] of 10.9 µM and a selectivity ratio [28] of 12.3.
Compound O=c1c2ccccc2sn1-c1ccccc1 has an IC50 [9] of 92 nM, a selectivity ratio [10] of 174 and an IC50 [29] of 263 nM. For the same compound, the selectivity ratio [30] was 60.8, the IC50 [31] was 61 nM and the selectivity ratio [32] was 262.

— ChEMBL document CHEMBL4308877, “Thiazole, thio and semicarbazone derivatives against tropical infective diseases: Chagas disease, human African trypanosomiasis (HAT), leishmaniasis, and malaria” (Eur J Med Chem, 2019)
